# Assay results: paper PMC5803267, “A small molecule inhibitor of Rheb selectively targets mTORC1 signaling” (Nature Communications, 2018)
# What was measured:
# [1] = test system: T389pS6K1 in HEK293 cells; assay: T389pS6K1 in HEK293 cells transfected with WT or constitutively active mTOR mutants; assay type: cell-based, human; conditions: HEK293, 30 µM NR1 for 90 min
# Method: MCF-7 cells were serum-starved for 16 h and treated with compound for 90 min before cell lysis and Western blot analysis. For insulin-stimulated cells, 100 nM insulin was added 30 min before cell lysis. For EGF-stimulated cells, 100 ng mL^−1 EGF was added 10 min before cell lysis. c Rap1 activity was detected in lysates loaded in vitro with either GDP or GTPγS and treated with NR1 at the indicated concentrations. This was followed by a subsequent pulldown of GST-RalGDS-RBD. Bound Rap1 was detected by Western blot. d Evaluation of NR1 in a LAM patient-derived cell line (TRI102) under replete and serum-starved conditions. For replete conditions, TRI102 cells were treated for 90 min with compound in DMEM + 10% FBS. For serum-starved conditions, TRI102 cells were serum-starved 16 h and then treated for 90 min with compound prior to cell lysis and Western blot analysis. e HEK293 cells co-transfected with the indicated mTOR constructs and HA-GST-S6K1 were starved of amino acids or treated with NR1. […]
# To further support Rheb as the target of NR1, we assessed whether NR1 could inhibit ^T389pS6K1 in cells transfected with constitutively active, Rheb-independent double mutants of mTOR originally described by Xu et al.[48]. […]
# MCF-7 cells = assay: Protein synthesis assay (35S-methionine incorporation) in MCF-7 cells; assay type: cell-based, human; conditions: MCF-7, 2.5 h compound, 35S-Met label 30 min
# Method: Data are plotted as percent decrease in forward scatter. […] Error bars represent standard deviation of the mean of duplicates; graph represents data from one of two separate experiments
# Another functional correlate dependent on mTORC1 activity is protein synthesis. […] The functional effects of NR1 on cell size and protein synthesis are consistent with the observed selective inhibition of mTORC1 pathway signaling.
# The protein synthesis assay was performed by incubation of MCF7 cells with compounds in MEM + 10% dialyzed FBS for 2.5 h and then incubated in labeling mix (compounds, Met- and Cys-free media, 10% dialyzed FBS, and ^35S protein labeling mix) for 30 min. Cells were lysed, proteins were precipitated, and resuspended pellets were read on a Microbeta 2.
compound,measurement,setting,value
"CN(C)C(=O)c1ccc(Cn2c(C(=O)O)cc3c(Br)cc(Sc4ccc(Cl)c(Cl)c4)cc32)cc1 [NR1, 4-bromo-6-(3,4-dichlorophenylthio)-1-(4-(dimethylcarbamoyl)benzyl)-1H-indole-2-carboxylic acid]",T389pS6K1 phosphorylation with Rheb-independent mTOR mutants,[1],no impact on pS6K1
same,T389pS6K1 phosphorylation with vehicle or WT mTOR,[1],reduces
same,protein synthesis,MCF-7 cells,dose-dependently reduce protein synthesis
